Assay results reported in patent publication US6583159B1, “Substitute 1-(piperidin-4-yl)-3-(aryl)-isothioureas, their preparation and therapeutic use” (Pierre Fabre Medicament, priority 1999, dated 2003).
Counter-ions that a name gives are not always drawn.

Tests used:
[1] = system: anesthetized rabbit; test: Ischemia-reperfusion in the anesthetized rabbit, oral; format: in vivo
Source text: The compounds of the present invention are also active orally in the test of ischemia-reperfusion in the anesthetized rabbit according to the method of Verscheure et al., (J. Cardiovasc. Pharmacol., 1995, 25, 126-133).

[2] = system: guinea pig perfused isolated heart; test: Antiischemic activity, global ischemia in the guinea pig perfused isolated heart; format: cell-based; details: Cavia porcellus, 10^−6M, ischemic contraction vs vehicle group
Experimental: The antiischemic activity was measured with regard to the test of the guinea pig perfused isolated heart according to the technique of Le Grand B. et al. (Am. J. Physiol., 269, H533-H540, 1995). The guinea pig hearts are removed, perfused with a modified Krebs solution and the compound to be studied, in solution in water or in a 99/01 water/DMSO mixture (according to solubility), is added after 20 minutes. […], global ischemia is brought about by halting coronary perfusion for 50 min, followed by reperfusion for 1 h. The inhibition of ischemic contraction in the presence of the compound studied is measured with respect to that of the vehicle group. The results are shown in Table II as nonlimiting examples at a concentration of 10^−6M.

[3] = system: rat isolated left atrium; test: Inhibition of the contraction with veratrine of the rat isolated left atrium; format: cell-based; details: 10^−7M, veratrine-induced contraction
Experimental: The inhibition of the contraction with veratrine of the rat isolated left atrium was carried out according to the technique of Le Grand et al. (Naunyn-Schmiedebergs Arch. Pharmacol., (1993) 348, p. 184-190). The results are shown in Table I below, where the percentages of the inhibition are given at a concentration of 10^−7M.

Row | melting point [°C] | SMILES | other results
1 | 138 to 139 | CS/C(=N\c1ccccc1)N(C)C1CCN(CCCCOc2ccc(C)c(C)c2)CC1.O=C(O)/C=C/C(=O)O | –
2 | 106 to 107 | COc1cc(Cl)ccc1OCCCCN1CCC(N(C)/C(=N/c2ccccc2)SC)CC1.O=C(O)/C=C/C(=O)O | –
3 | 148 | CS/C(=N\c1ccccc1F)N(C)C1CCN(CCCCOc2ccc(F)c(F)c2)CC1.O=C(O)/C=C/C(=O)O | –
4 | 130 | CS/C(=N\c1ccc(Cl)cc1)N(C)C1CCN(CCCCOc2ccc(F)c(F)c2)CC1.O=C(O)/C=C/C(=O)O | –
5 | 141 | CS/C(=N\c1ccc(C)cc1)N(C)C1CCN(CCCCOc2ccc(F)c(F)c2)CC1.O=C(O)/C=C/C(=O)O | –
6 | 130 | COc1ccc(/N=C(\SC)N(C)C2CCN(CCCCOc3ccc(F)c(F)c3)CC2)cc1.O=C(O)/C=C/C(=O)O | –
7 | 129 | CS/C(=N\c1c(C)cccc1C)N(C)C1CCN(CCCCOc2ccc(F)c(F)c2)CC1.O=C(O)/C=C/C(=O)O | –
8 | 194 | CS/C(=N\c1c(C(C)C)cccc1C(C)C)N(C)C1CCN(CCCCOc2ccc(F)c(F)c2)CC1.O=C(O)/C=C/C(=O)O | –
9 | 133 | CS/C(=N\c1cccc(F)c1)N(C)C1CCN(CCCCOc2ccc(F)c(F)c2)CC1.O=C(O)/C=C/C(=O)O | –
10 | 151 to 152 | CCS/C(=N\c1ccccc1)N(C)C1CCN(CCCCOc2ccc(F)c(F)c2)CC1.O=C(O)/C=C/C(=O)O | –
11 | 132 | CS/C(=N\c1ccc([N+](=O)[O-])cc1)N(C)C1CCN(CCCCOc2ccc(F)c(F)c2)CC1.O=C(O)/C=C/C(=O)O | –
12 | 110 to 111 | CS/C(=N\c1ccccc1)N(C)C1CCN(CCCOCCc2ccc(F)cc2)CC1.O=C(O)/C=C/C(=O)O | –
13 | 131 to 132 | CS/C(=N\c1ccccc1)N(CC(C)C)C1CCN(CCCCOc2ccc(F)c(F)c2)CC1.O=C(O)/C=C/C(=O)O | –
14 | 129 to 130 | CS/C(=N\c1ccccc1)N(C)C1CCN(CCCCCOc2ccc(F)c(F)c2)CC1.O=C(O)/C=C/C(=O)O | –
15 | 106 to 107 | CS/C(=N\c1ccccc1)N(C)C1CCN(CCCOc2ccc(F)c(F)c2)CC1.O=C(O)/C=C/C(=O)O | –
16 | 133 to 134 | CS/C(=N\c1ccccc1)N(C)C1CCN(CCCCOc2ccc(F)cc2)CC1.O=C(O)/C=C/C(=O)O | –
17 | 120 | CS/C(=N\c1ccccc1)N(C)C1CCN(CCOc2ccc(F)cc2)CC1.O=C(O)/C=C/C(=O)O | –
18 | 120 | COc1ccc(OCCCCN2CCC(N(C)/C(=N/c3ccccc3)SC)CC2)cc1.O=C(O)/C=C/C(=O)O | –
19 | 151 to 152 | CS/C(=N\c1ccccc1)N(C)C1CCN(CCCCOc2ccc(F)c(F)c2)CC1.O=C(O)/C=C/C(=O)O [Example 1, 1,2-Dimethyl-3-phenyl-1-[1-[4-(3,4-difluorophenoxy)butyl]piperidin-4-yl]isothiourea hydrogen fumarate] | % arterial pressure variation ([1]; 0.63 mg/kg p.o.): −3%; % heart rate variation ([1]; 0.63 mg/kg p.o.): 5%; % inhibition with regard to ST-segment elevation ([1]; 0.63 mg/kg p.o.): 58%; Number of animals exhibiting reperfusion arrhythmias ([1]; 0.63 mg/kg p.o.): 1/5; inhibition at 1 µM [2]: 69%; inhibition at 0.1 µM [3]: 28%
20 | 120 to 121 | CCN(/C(=N/c1ccccc1)SC)C1CCN(CCCCOc2ccc(F)c(F)c2)CC1.O=C(O)/C=C/C(=O)O [Example 3, 1-Ethyl-1-[1-[4-(3,4-difluorophenoxy)butyl]piperidin-4-yl]-2-methyl-3-phenylisothiourea hydrogen fumarate] | inhibition at 0.1 µM [3]: 32%
21 | 125 | CS/C(=N\c1ccc(F)cc1)N(C)C1CCN(CCCCOc2ccc(F)c(F)c2)CC1.O=C(O)/C=C/C(=O)O [Example 13, 1,2-Dimethyl-1-[1-[4-(3,4-difluorophenoxy)butyl]piperidin-4-yl]-3-(4-fluorophenyl)isothiourea hydrogen fumarate] | inhibition at 0.1 µM [3]: 34%
22 | – | CS/C(=N\c1c(F)cccc1F)N(C)C1CCN(CCCCOc2ccc(F)c(F)c2)CC1 [Example 21, 1,2-Dimethyl-1-[1-[4-(3,4-difluorophenoxy)butyl]piperidin-4-yl]-3-(2,6-difluorophenyl)isothiourea hydrogen fumarate] | inhibition at 1 µM [2]: 53%; inhibition at 0.1 µM [3]: 31%
23 | – | CN(C1=Nc2ccccc2CS1)C1CCN(CCCCOc2ccc(F)c(F)c2)CC1 [PF Control, N-[1-[4-(3,4-Difluorophenoxy)butyl]piperidin-4-yl]-N-methyl-4H-3,1-benzothiazin-2-amine] | % arterial pressure variation ([1]; 0.63 mg/kg p.o.): 9%; % heart rate variation ([1]; 0.63 mg/kg p.o.): 9%; % inhibition with regard to ST-segment elevation ([1]; 0.63 mg/kg p.o.): 33%; Number of animals exhibiting reperfusion arrhythmias ([1]; 0.63 mg/kg p.o.): 1/5; inhibition at 1 µM [2]: 48%; inhibition at 0.1 µM [3]: 25%
24 | – | CN(c1nc2ccccc2s1)C1CCN(CCCCOc2ccc(F)cc2)CC1 [R 56865, N-(1-(4-(4-Fluorophenoxy)butyl)piperidin-4-yl)-N-methyl-2-benzothiazolamine] | % arterial pressure variation ([1]; 2.5 mg/kg p.o.): 27%; % heart rate variation ([1]; 2.5 mg/kg p.o.): 0%; % inhibition with regard to ST-segment elevation ([1]; 2.5 mg/kg p.o.): 0%; Number of animals exhibiting reperfusion arrhythmias ([1]; 2.5 mg/kg p.o.): 2/5; inhibition at 0.1 µM [3]: 33%
